These results are taken from ChEMBL document CHEMBL5500396, “Discovery, Multiparametric Optimization, and Solid-State Driven Identification of CHF-6550, a Novel Soft Dual Pharmacology Muscarinic Antagonist and β2 Agonist (MABA) for the Inhaled Treatment of Respiratory Diseases” (J Med Chem, 2024).

Each structure is given as a SMILES string.

Broadly, the inhibition is the relative decrease from the control value, in per cent. Low readings indicate a weak effect, high ones a strong effect. Usually hepatocyte CLint stands for the capacity of the preparation to metabolise the compound, expressed as a volume cleared per time. Broadly, the Emax is the greatest response seen or fitted, relative to the assay's reference. One may read the clearance as the volume of plasma or blood freed of the substance per unit of time. Low values mean a low capacity for elimination, high ones a high capacity for elimination. The fraction remaining is what is left of the initial amount, in per cent. By half-life is commonly meant the time in which the quantity being followed falls by half. Low readings indicate rapid decline, high ones slow decline. As usually defined, the Vd is the apparent volume that relates the amount in the body to the concentration in plasma or blood. What is called Ki is the equilibrium dissociation constant of an inhibitor or competing ligand from its target. A low value points to tighter binding.

Series [1] in a line: in vivo. As to conditions: male, Dunkin-Hartley, guinea pig, inhaled or intranasal, 0.3 mM.
Description: Toxicity in male albino Dunkin-Hartley guinea pig model assessed as inhibition of carbachol-induced salivation at 0.3 mM, preadministered with compound for 10 mins via aerosol followed by anesthesia treatment 3 hrs post compound addition and further treated with carbachol and measured every 5 mins for 4 times
The species entered for series [2] is Cavia porcellus. Description: animal or person. As to conditions: albino Dunkin-Hartley, 1 h, read-out: INH.
Description: Inhibition of acetylcholine induced bronchoconstriction in male albino Dunkin-Hartley guinea pig model at 0.3 nmol/kg, IT(Intratracheal) preadministered with compound followed by acetylcholine addition at 5 to 30 mins in presence of ICI-118551 and measured 1 hrs post compound treatment relative to control
The target in series [3] is Voltage-gated inwardly rectifying potassium channel KCNH2 (Homo sapiens, UniProt Q12809).
Description: Inhibition of human ERG by patch clamp assay
Series [4] concerns Cavia porcellus. Description: Inhibition of histamine induced bronchoconstriction in male albino Dunkin-Hartley guinea pig model at 0.3 nmol/kg, IT(Intratracheal) preadministered with compound followed by histamine addition at 5 to 30 mins and measured 1 hrs post compound treatment relative to control. As to conditions: read-out: INH.
The target in series [5] is Sodium channel protein type 5 subunit alpha (Homo sapiens, UniProt Q14524).
Description: Inhibition of human Nav1.5
Series [6] in a line: in vivo. As to conditions: male, Dunkin-Hartley, guinea pig, inhaled or intranasal, 3 mM.
Description: Toxicity in male albino Dunkin-Hartley guinea pig model assessed as inhibition of carbachol-induced salivation at 3 mM, preadministered with compound for 10 mins via aerosol followed by anesthesia treatment 3 hrs post compound addition and further treated with carbachol and measured every 5 mins for 4 times
Series [7] is described as follows: in vitro. As to conditions: rat, hepatocytes.
Description: Metabolic stability in rat hepatocytes assessed as clearance measured per 10^6 cells at 1 uM incubated for 90 mins by LC-MS/MS analysis
The test system of series [8] is Cavia porcellus. Description: Bronchodilating effect in acetylcholine induced male albino Dunkin-Hartley guinea pig model assessed as maximal efficacy at 0.3 nmol/kg, IT(Intratracheal) administered with compound followed by acetylcholine addition at 5 to 30 mins and measured 1 hrs post compound treatment relative to control.
Series [9] in a line: in vivo. As to conditions: rat, iv, 125 ug.
Description: Clearance in rat at 125 ug, iv measured after 1 hrs by LC-MS analysis
Series [10] concerns Cavia porcellus. Description: Inhibition of acetylcholine induced bronchoconstriction in male albino Dunkin-Hartley guinea pig model at 0.3 nmol/kg, IT(Intratracheal) preadministered with compound followed by acetylcholine addition at 5 to 30 mins and measured 16 hrs post compound treatment relative to control. As to conditions: read-out: INH.
Series [11] in a line: Stability in guinea pig lung S9 fraction at 1 uM incubated for 60 mins by LC-MS/MS analysis.
Series [12] deals with Cavia porcellus. Kind of series: Bronchodilating effect in histamine induced male albino Dunkin-Hartley guinea pig model assessed as maximal efficacy at 0.3 nmol/kg, IT(Intratracheal) administered with compound followed by histamine addition at 5 to 30 mins and measured 1 hrs post compound treatment relative to control.
Series [13] in a line: in vitro. As to conditions: human, plasma.
Description: Stability in human plasma assessed as half-life at 5 uM incubated for 120 mins by LC-MS/MS analysis
Series [14] deals with Beta-2 adrenergic receptor (Cavia porcellus, UniProt Q8K4Z4). Description: Agonist activity at beta2 adrenoceptor in male albino Dunkin-Hartley guinea pig trachea assessed as inhibition of histamine induced smooth muscle contraction.
Series [15] addresses Voltage-dependent L-type calcium channel subunit alpha-1C (Homo sapiens, UniProt Q13936).
Description: Inhibition of human Cav1.2
Series [16] in a line: Half-life in guinea pig at 3 nmol/kg, IT(Intratracheal) administered as dry powder. As to conditions: in vivo, inhaled or intranasal.
The species named for series [17] is Cavia porcellus. Kind of series: animal or person. As to conditions: albino Dunkin-Hartley, 16 h, read-out: INH.
Description: Inhibition of acetylcholine induced bronchoconstriction in male albino Dunkin-Hartley guinea pig model at 0.3 nmol/kg, IT(Intratracheal) preadministered with compound followed by acetylcholine addition at 5 to 30 mins in presence of ICI-118551 and measured 16 hrs post compound treatment relative to control
Series [18] is described as follows: in vivo. As to conditions: rat, iv, 125 ug. The source holds these as a separate data set.
Description: Volume of distribution at steady state in rat at 125 ug, iv measured after 1 hrs by LC-MS analysis
The species named for series [19] is Cavia porcellus. Kind of series: animal or person. As to conditions: albino Dunkin-Hartley, 1 h.
Description: Bronchodilating effect in acetylcholine induced male albino Dunkin-Hartley guinea pig model assessed as maximal efficacy at 0.3 nmol/kg, IT(Intratracheal) administered with compound followed by acetylcholine addition at 5 to 30 mins in presence of ICI-118551 and measured 1 hrs post compound treatment relative to control
A short description of series [20]: in vitro. As to conditions: human, hepatocytes.
Description: Metabolic stability in human hepatocytes assessed as clearance measured per 10^6 cells at 1 uM incubated for 90 mins by LC-MS/MS analysis
Series [21] deals with Cavia porcellus. Kind of series: Inhibition of acetylcholine induced bronchoconstriction in male albino Dunkin-Hartley guinea pig model at 0.3 nmol/kg, IT(Intratracheal) preadministered with compound followed by acetylcholine addition at 5 to 30 mins and measured 1 hrs post compound treatment relative to control. As to conditions: read-out: INH.
The subject of series [22] is Cavia porcellus. Description: Inhibition of histamine induced bronchoconstriction in male albino Dunkin-Hartley guinea pig model at 0.3 nmol/kg, IT(Intratracheal) preadministered with compound followed by histamine addition at 5 to 30 mins and measured 16 hrs post compound treatment relative to control. As to conditions: read-out: INH.
A short description of series [23]: in vitro. As to conditions: rat, plasma.
Description: Stability in rat plasma assessed as half-life at 5 uM incubated for 120 mins by LC-MS/MS analysis
The nature of series [24]: in vivo. As to conditions: male, Dunkin-Hartley, guinea pig, inhaled or intranasal, 1 mM.
Description: Toxicity in male albino Dunkin-Hartley guinea pig model assessed as inhibition of carbachol-induced salivation at 1 mM, preadministered with compound for 10 mins via aerosol followed by anesthesia treatment 3 hrs post compound addition and further treated with carbachol and measured every 5 mins for 4 times
Series [25] deals with Beta-2 adrenergic receptor (Homo sapiens, UniProt P07550).
Description: Displacement of [125I]-Cyanopindolol from human beta2 adrenoceptor assessed as inhibition constant incubated for 1 hrs by Microbeta scintillation counter
The nature of series [26]: in vitro. As to conditions: guinea pig, plasma.
Description: Stability in guinea pig plasma assessed as half-life at 5 uM incubated for 120 mins by LC-MS/MS analysis
The next series deals with Trachea. Description: Inhibition of carbachol-induced smooth muscle contraction in male albino Dunkin-Hartley guinea pig trachea. As to conditions: Cavia porcellus, read-out: pIC50 (converted).

Sequence of Voltage-dependent L-type calcium channel subunit alpha-1C (Q13936 whole entry): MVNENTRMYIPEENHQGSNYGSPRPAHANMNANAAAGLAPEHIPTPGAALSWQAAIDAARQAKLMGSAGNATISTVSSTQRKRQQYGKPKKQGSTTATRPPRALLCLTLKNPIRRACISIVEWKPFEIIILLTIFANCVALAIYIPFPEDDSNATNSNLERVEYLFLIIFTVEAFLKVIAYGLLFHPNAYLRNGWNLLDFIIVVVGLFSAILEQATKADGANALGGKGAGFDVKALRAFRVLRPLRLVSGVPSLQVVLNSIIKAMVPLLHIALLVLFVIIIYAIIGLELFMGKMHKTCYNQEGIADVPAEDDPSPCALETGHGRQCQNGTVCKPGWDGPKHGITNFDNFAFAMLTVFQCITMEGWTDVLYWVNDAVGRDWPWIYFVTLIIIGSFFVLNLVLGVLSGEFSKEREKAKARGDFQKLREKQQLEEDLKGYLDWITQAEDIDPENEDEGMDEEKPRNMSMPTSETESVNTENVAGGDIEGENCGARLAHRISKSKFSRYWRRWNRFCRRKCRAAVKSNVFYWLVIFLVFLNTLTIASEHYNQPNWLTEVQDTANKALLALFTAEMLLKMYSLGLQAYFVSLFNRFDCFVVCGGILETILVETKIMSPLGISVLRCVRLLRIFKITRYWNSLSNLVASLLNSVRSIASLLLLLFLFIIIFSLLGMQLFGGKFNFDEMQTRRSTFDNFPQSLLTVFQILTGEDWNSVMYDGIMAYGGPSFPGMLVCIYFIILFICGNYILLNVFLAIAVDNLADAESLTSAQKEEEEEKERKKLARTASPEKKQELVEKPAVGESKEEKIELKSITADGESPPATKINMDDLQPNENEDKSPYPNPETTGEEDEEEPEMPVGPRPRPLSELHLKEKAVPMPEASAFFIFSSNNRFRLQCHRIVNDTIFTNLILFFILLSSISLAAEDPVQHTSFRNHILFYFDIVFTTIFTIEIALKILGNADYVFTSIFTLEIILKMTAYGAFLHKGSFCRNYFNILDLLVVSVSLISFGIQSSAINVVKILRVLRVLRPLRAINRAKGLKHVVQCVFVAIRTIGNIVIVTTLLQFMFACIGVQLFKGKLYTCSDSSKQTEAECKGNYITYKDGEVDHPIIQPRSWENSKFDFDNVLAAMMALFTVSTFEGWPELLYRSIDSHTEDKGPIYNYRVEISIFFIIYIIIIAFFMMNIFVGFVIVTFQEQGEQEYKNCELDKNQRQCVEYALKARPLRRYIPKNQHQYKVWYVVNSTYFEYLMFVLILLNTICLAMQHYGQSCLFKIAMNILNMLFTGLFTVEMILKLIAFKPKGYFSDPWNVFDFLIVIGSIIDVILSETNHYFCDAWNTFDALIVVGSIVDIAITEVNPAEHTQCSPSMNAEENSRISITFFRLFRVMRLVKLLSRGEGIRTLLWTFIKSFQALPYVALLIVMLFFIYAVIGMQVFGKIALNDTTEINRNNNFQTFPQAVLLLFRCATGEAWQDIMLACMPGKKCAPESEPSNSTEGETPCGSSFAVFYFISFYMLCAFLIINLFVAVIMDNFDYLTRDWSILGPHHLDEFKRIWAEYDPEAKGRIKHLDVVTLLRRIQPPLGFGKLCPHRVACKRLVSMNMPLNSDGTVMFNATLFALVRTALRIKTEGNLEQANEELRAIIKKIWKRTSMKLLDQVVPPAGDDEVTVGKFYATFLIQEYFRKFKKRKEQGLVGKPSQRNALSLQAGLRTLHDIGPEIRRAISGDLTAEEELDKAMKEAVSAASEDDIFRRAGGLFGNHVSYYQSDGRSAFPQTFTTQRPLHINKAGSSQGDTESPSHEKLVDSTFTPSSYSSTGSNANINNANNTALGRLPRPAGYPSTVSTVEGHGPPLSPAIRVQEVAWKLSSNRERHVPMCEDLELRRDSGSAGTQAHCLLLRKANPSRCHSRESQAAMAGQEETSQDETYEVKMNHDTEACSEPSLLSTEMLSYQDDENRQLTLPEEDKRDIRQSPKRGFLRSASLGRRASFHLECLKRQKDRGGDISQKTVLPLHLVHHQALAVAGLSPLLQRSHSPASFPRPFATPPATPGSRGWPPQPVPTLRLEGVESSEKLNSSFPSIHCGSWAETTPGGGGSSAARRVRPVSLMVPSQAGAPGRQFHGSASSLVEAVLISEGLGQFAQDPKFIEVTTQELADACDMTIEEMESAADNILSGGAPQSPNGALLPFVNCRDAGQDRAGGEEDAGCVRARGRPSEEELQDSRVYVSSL
Sequence of Voltage-gated inwardly rectifying potassium channel KCNH2 (Q12809 whole entry): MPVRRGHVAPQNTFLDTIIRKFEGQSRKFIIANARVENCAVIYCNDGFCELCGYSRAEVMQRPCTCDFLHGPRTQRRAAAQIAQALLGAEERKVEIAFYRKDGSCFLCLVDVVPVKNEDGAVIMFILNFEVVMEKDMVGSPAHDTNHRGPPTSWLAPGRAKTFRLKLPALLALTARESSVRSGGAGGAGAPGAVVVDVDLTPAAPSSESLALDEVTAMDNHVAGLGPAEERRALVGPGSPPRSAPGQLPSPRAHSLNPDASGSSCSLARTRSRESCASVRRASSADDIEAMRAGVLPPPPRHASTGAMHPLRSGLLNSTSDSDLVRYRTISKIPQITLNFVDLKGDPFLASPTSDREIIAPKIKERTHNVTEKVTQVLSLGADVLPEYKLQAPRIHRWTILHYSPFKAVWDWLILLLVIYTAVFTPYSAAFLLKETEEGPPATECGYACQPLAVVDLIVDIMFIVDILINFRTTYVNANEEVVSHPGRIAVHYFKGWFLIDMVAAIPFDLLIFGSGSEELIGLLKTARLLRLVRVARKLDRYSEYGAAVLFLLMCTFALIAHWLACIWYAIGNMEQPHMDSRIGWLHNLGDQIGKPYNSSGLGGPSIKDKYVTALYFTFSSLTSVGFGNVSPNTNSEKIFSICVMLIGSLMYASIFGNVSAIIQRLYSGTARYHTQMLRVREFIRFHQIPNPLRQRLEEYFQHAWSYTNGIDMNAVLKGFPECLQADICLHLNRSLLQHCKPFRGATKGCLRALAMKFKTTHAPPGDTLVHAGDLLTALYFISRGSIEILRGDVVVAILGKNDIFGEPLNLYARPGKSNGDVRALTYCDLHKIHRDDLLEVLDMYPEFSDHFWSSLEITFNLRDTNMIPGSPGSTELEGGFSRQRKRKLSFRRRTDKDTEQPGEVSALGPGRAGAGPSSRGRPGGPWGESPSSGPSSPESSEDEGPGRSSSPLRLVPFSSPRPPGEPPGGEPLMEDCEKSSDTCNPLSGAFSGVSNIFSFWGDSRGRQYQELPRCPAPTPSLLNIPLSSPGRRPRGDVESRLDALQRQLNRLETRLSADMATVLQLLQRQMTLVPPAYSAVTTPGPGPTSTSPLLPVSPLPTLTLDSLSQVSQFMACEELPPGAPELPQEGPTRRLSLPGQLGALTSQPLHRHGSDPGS
Sequence of Beta-2 adrenergic receptor (Homo sapiens, UniProt P07550) (P07550 whole entry): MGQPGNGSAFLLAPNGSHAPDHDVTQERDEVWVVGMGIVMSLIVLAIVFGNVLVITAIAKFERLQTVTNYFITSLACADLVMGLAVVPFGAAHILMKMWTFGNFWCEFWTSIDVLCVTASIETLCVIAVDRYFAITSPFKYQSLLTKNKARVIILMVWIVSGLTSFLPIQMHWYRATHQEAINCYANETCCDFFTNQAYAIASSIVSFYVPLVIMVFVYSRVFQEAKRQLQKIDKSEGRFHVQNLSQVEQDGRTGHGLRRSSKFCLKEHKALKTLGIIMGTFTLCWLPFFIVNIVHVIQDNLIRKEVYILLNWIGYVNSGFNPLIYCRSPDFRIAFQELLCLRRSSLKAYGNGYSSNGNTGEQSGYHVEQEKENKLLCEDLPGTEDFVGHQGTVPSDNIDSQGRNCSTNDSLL
Sequence of Beta-2 adrenergic receptor (Cavia porcellus, UniProt Q8K4Z4) (Q8K4Z4 whole entry): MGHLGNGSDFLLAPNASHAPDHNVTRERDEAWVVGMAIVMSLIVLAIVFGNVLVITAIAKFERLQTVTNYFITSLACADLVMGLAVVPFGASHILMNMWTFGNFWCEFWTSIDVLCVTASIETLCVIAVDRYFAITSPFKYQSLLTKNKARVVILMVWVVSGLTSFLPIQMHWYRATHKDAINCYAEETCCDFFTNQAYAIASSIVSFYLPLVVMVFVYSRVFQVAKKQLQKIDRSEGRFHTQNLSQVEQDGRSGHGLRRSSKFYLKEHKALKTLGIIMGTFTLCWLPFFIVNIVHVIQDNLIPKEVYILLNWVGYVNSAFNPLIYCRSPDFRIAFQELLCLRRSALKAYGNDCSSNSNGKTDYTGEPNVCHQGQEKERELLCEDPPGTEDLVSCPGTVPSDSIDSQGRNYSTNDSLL

As for `C[N+]1(C)[C@@H]2C[C@@H](OC(=O)C(O)(c3cccs3)c3cccs3)C[C@H]1[C@@H]1O[C@@H]12` [TIOTROPIUM BROMIDE], the inhibition at 3.167 h, 300 µM in “in vivo [1]” worked out at 77%.
As for `CN1CCC[C@@H](OC(=O)[C@](O)(c2ccccc2)c2cccc(OCCCNC(=O)c3ccc(CNC[C@H](O)c4ccc(O)c5[nH]c(=O)ccc45)cc3)c2)C1`, the inhibition in vivo at 0.0003 µmol/kg in the series listed under Cavia porcellus [2] is 78%; in the series with Cavia porcellus [4], 89%; with Cavia porcellus [10], 84%; in the series listed under Cavia porcellus [17], 54%; with Cavia porcellus [21], 89%; in the series with Cavia porcellus [22], 57%. Further, the IC50 in series [3] is 128 µM; in [5], 310 µM; in series [14], 0.0001 µM; in series [15] it was 314 µM; with Trachea, 0.000126 µM. For the same molecule, the inhibition at 3.167 h, 3000 µM in the series “in vivo [6]” amounted to 43%. Moreover, the hepatocyte CLint at 1.5 h, 1 µM amounted to 12 µL/min/1e6 cells in the series “in vitro [7]” and 3 µL/min/1e6 cells in “in vitro [20]”. Besides, the Emax at 0.0003 µmol/kg in the series with Cavia porcellus [8], in the series on Cavia porcellus [12] and in the series filed under Cavia porcellus [19] was 89% each time. Moreover, the clearance at 1 h in the series “in vivo [9]” amounted to 75 mL/min/kg. In [11], this molecule yielded a share remaining at 1 h, 1 µM of 91.1%. The half-life at 2 h, 5 µM in the series “in vitro [13]” is greater than 2.5 h; in the series “in vitro [23]”, 9 min; in the series “in vitro [26]” it was 1.3 h. Besides, in series [16], the half-life was 25 h. This molecule came in with a Vd at 1 h in “in vivo [18]” of 0.75 L/kg. In addition, the inhibition at 3.167 h, 1000 µM in “in vivo [24]” is 33%. In series [25], this molecule had an inhibitory constant (Ki) of 0.0251 nM.
